From the NIST ThermoML archive (doi:10.1021/je030156p)
Numbers after ± are expanded uncertainties.

Details: Liquid, Ebulliometric method (Recirculating still)

## FC(F)C(F)(F)F [pentafluoroethane]
268.15 K
  vapor or sublimation pressure: 573.7 ± 2 kPa
273.15 K
  vapor or sublimation pressure: 671.4 ± 2.1 kPa
283.15 K
  vapor or sublimation pressure: 907.6 ± 2.1 kPa
293.15 K
  vapor or sublimation pressure: 1202.8 ± 2.1 kPa
303.15 K
  vapor or sublimation pressure: 1566 ± 2.2 kPa
313.15 K
  vapor or sublimation pressure: 2004.9 ± 2.2 kPa

## CCC [propane]
268.15 K
  vapor or sublimation pressure: 407.9 ± 2 kPa
273.15 K
  vapor or sublimation pressure: 476.9 ± 2 kPa
283.15 K
  vapor or sublimation pressure: 637.2 ± 2.1 kPa
293.15 K
  vapor or sublimation pressure: 839.2 ± 2.1 kPa
303.15 K
  vapor or sublimation pressure: 1074.6 ± 2.1 kPa
313.15 K
  vapor or sublimation pressure: 1364.3 ± 2.2 kPa
